From PMC10179972, “New Hybrid Tetrahydropyrrolo[3,2,1-ij]quinolin-1-ylidene-2-thioxothiazolidin-4-ones as New Inhibitors of Factor Xa and Factor XIa: Design, Synthesis, and In Silico and Experimental Evaluation” (Molecules, 2023)

How the values were obtained:
factor Xa = target: T1, factor Xa (Homo sapiens, UniProt P00742); assay: Inhibition of factor Xa, kinetics of hydrolysis of chromogenic substrate S2765; type: biochemical; conditions: for inhibition at 30 µM: 30 μM compound, factor Xa 2.5 nmol/L, S2765 200 μmol/L, pH 8.0, read-out: Percent Inhibition at 30 μM, Xa; for IC50: substrate S2765, buffer solution
T1 construct: followed by the addition of factor Xa (final concentration, 2.5 nmol·L^–1)
Experimental: We measured the kinetics of the hydrolysis of the specific substrates S2765 or S2366 by factors Xa and XIa, respectively, in the buffer solution and in the presence of various concentrations of compounds.
(§1) A specific low-molecular-weight chromogenic substrate, S2765 (Z-D-Arg-Gly-Arg-pNA·2HCl), was used in the case of factor Xa, while the substrate S2366 (pyroGlu-Pro-ArgpNA·HCl) (both substrates from Chromogenix, USA) was used for factor XIa.
A buffer containing 140 mM NaCl, 20 mM HEPES, and 0.1% PEG 6000 (pH 8.0) was placed in the wells of a 96-well plate, followed by the addition of factor Xa (final concentration, 2.5 nmol·L^–1) or XIa (final concentration 0.8 nmol·L^–1), the substrate S2765 (final concentration, 200 μmol·L^–1) or S2366 (final concentration, 200 μmol·L^–1), and a solution of the test compound in DMSO (final concentration, 30 μmol·L^–1; the DMSO content in the well was no more than 2%). […] The initial rate of substrate degradation was determined from the initial slope of the 4-nitroaniline-formation curve. The rate of substrate degradation by the enzyme in the presence of the inhibitor was expressed as a percentage relative to the rate of substrate degradation in the absence of the inhibitor. The data obtained were processed using GraphPad Prism and OriginPro 8 software.

factor XIa = factor XIa (Homo sapiens, UniProt P03951); assay: Inhibition of factor XIa, kinetics of hydrolysis of chromogenic substrate S2366; type: biochemical; conditions: for inhibition at 30 µM: 30 μM compound, factor XIa 0.8 nmol/L, S2366 200 μmol/L, pH 8.0, read-out: Percent Inhibition at 30 μM, XIa; for IC50: substrate S2366, buffer solution
Experimental: Compounds 12, 14 and 16 were evaluated for their anticoagulant activity against factors Xa and Xia, and the results are presented in Table 1. For the best Xa and XIa inhibitors, additional measurements were performed to determine the IC50 values. We measured the kinetics of the hydrolysis of the specific substrates S2765 or S2366 by factors Xa and XIa, respectively, in the buffer solution and in the presence of various concentrations of compounds.
as §1
A buffer containing 140 mM NaCl, 20 mM HEPES, and 0.1% PEG 6000 (pH 8.0) was placed in the wells of a 96-well plate, followed by the addition of factor Xa (final concentration, 2.5 nmol·L^–1) or XIa (final concentration 0.8 nmol·L^–1), the substrate S2765 (final concentration, 200 μmol·L^–1) or S2366 (final concentration, 200 μmol·L^–1), and a solution of the test compound in DMSO (final concentration, 30 μmol·L^–1; the DMSO content in the well was no more than 2%). The kinetics of the formation of p-nitroaniline were measured using a THERMOmax Microplate Reader (Molecular Devices Corporation, USA) using the absorption of light with a wavelength of 405 nm. The initial rate of substrate degradation was determined from the initial slope of the 4-nitroaniline-formation curve. The rate of substrate degradation by the enzyme in the presence of the inhibitor was expressed as a percentage relative to the rate of substrate degradation in the absence of the inhibitor. The data obtained were processed using GraphPad Prism and OriginPro 8 software.

Chain of factor XIa (P03951 388-625 limits assumed): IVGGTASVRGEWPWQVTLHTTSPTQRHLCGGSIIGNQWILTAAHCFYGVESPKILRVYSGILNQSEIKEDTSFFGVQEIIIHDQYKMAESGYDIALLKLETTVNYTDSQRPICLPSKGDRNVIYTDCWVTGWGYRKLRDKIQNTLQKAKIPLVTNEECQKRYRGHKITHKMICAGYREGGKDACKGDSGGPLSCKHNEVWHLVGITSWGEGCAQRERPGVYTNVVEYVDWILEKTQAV
Chain of factor XIa (P03951 19-387 partner limits assumed): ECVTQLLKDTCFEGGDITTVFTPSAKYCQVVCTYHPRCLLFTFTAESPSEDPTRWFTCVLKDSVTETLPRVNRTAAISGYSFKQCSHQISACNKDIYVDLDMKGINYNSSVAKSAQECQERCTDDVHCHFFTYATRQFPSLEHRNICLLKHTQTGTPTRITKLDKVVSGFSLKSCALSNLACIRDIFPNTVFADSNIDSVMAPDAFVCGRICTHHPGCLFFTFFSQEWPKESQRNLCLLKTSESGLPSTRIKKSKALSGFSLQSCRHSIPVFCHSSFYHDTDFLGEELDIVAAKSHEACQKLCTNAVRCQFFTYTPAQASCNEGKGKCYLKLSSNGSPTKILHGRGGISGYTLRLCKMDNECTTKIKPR
T1 sequence (P00742 235-488 limits assumed): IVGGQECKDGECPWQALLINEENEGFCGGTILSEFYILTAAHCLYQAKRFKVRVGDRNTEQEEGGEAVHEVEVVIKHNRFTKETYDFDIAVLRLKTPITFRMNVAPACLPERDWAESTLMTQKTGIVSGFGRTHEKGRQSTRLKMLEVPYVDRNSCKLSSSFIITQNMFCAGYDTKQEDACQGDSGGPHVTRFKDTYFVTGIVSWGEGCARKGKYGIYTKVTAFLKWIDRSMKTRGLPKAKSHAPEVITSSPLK
T1 sequence (P00742 41-179 partner limits assumed): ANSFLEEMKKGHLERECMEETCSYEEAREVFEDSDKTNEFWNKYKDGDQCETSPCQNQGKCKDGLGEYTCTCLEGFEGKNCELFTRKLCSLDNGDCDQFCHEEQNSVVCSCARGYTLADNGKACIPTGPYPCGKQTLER

Row | inhibition at 30 µM (factor Xa) [%] | IC50 (factor Xa) [µM] | inhibition at 30 µM (factor XIa) [%] | IC50 (factor XIa) [µM] | SMILES
1 | 94 | 9.41 ± 0.35 | 22 | – | CC1CC(C)(C)N2C(=O)/C(=C3\SC(=S)NC3=O)c3cccc1c32 (stereo not drawn) [12a, (Z)-2-Thioxo-5-(4,4,6-trimethyl-2-oxo-5,6-dihydro-4H-pyrrolo[3,2,1-ij]quinolin-1(2H)-ylidene)thiazolidin-4-one]
2 | 81 | 3.53 ± 0.08 | 12 | – | CC1CC(C)(C)N2C(=O)/C(=C3\SC(=S)NC3=O)c3cc(I)cc1c32 (stereo not drawn) [12b, (Z)-5-(8-Iodo-4,4,6-trimethyl-2-oxo-5,6-dihydro-4H-pyrrolo[3,2,1-ij]quinolin-1(2H)-ylidene)-2-thioxothiazolidin-4-one]
3 | 58 | – | 72 | – | CC1CC(C)(C)N2C(=O)/C(=C3\SC(=S)NC3=O)c3cc(OC(=O)c4ccccc4)cc1c32 (stereo not drawn) [12c, (Z)-4,4,6-Trimethyl-2-oxo-1-(4-oxo-2-thioxothiazolidin-5-ylidene)-1,2,5,6-tetrahydro-4H-pyrrolo[3,2,1-ij]quinolin-8-yl benzoate]
4 | 63 | 2.35 ± 0.22 | 98 | 3.79 ± 0.03 | COc1ccccc1C(=O)Oc1cc2c3c(c1)C(C)CC(C)(C)N3C(=O)/C2=C1\SC(=S)NC1=O (stereo not drawn) [12d, (Z)-4,4,6-Trimethyl-2-oxo-1-(4-oxo-2-thioxothiazolidin-5-ylidene)-1,2,5,6-tetrahydro-4H-pyrrolo[3,2,1-ij]quinolin-8-yl 2-methoxybenzoate]
5 | 49 | – | 94 | 3.74 ± 0.33 | COc1cc(C(=O)Oc2cc3c4c(c2)C(C)CC(C)(C)N4C(=O)/C3=C2\SC(=S)NC2=O)cc(OC)c1OC (stereo not drawn) [12e, (Z)-4,4,6-Trimethyl-2-oxo-1-(4-oxo-2-thioxothiazolidin-5-ylidene)-1,2,5,6-tetrahydro-4H-pyrrolo[3,2,1-ij]quinolin-8-yl 3,4,5-trimethoxybenzoate]
6 | 18 | – | 5 | – | CCN1C(=O)/C(=C2/C(=O)N3c4c2cc(OC)cc4C(C)CC3(C)C)SC1=S (stereo not drawn) [12f, (Z)-3-Ethyl-5-(8-methoxy-4,4,6-trimethyl-2-oxo-5,6-dihydro-4H-pyrrolo[3,2,1-ij]quinolin-1(2H)-ylidene)-2-thioxothiazolidin-4-one]
7 | 99 | 3.7 ± 0.03 | 98 | 5.03 ± 0.18 | CC1(c2ccccc2)CC(C)(C)N2C(=O)/C(=C3\SC(=S)NC3=O)c3cc(F)cc1c32 (stereo not drawn) [12g, (Z)-5-(8-Fluoro-4,4,6-trimethyl-2-oxo-6-phenyl-5,6-dihydro-4H-pyrrolo[3,2,1-ij]quinolin-1(2H)-ylidene)-2-thioxothiazolidin-4-one]
8 | 73 | 2.28 ± 0.23 | 98 | 3.73 ± 0.03 | CC1(c2ccccc2)CC(C)(C)N2C(=O)/C(=C3\SC(=S)NC3=O)c3cc(Br)cc1c32 (stereo not drawn) [12h, (Z)-5-(8-Bromo-4,4,6-trimethyl-2-oxo-6-phenyl-5,6-dihydro-4H-pyrrolo[3,2,1-ij]quinolin-1(2H)-ylidene)-2-thioxothiazolidin-4-one]
9 | 75 | 3.44 ± 0.06 | 96 | 5.04 ± 0.33 | CC1(c2ccccc2)CC(C)(C)N2C(=O)/C(=C3\SC(=S)NC3=O)c3cc(I)cc1c32 (stereo not drawn) [12i, (Z)-5-(8-Iodo-4,4,6-trimethyl-2-oxo-6-phenyl-5,6-dihydro-4H-pyrrolo[3,2,1-ij]quinolin-1(2H)-ylidene)-2-thioxothiazolidin-4-one]
10 | 89 | – | 77 | – | CCN1C(=O)/C(=C2/C(=O)N3c4c2cccc4C(C)(c2ccccc2)CC3(C)C)SC1=S (stereo not drawn) [12j, (Z)-3-Ethyl-2-thioxo-5-(4,4,6-trimethyl-2-oxo-6-phenyl-5,6-dihydro-4H-pyrrolo[3,2,1-ij]quinolin-1(2H)-ylidene)thiazolidin-4-one]
11 | 99 | 2.85 ± 0.23 | 99 | 5.24 ± 0.29 | CC1(c2ccc(Cl)cc2)CC(C)(C)N2C(=O)/C(=C3\SC(=S)NC3=O)c3cc(F)cc1c32 (stereo not drawn) [12k, (Z)-5-(6-(4-Chlorophenyl)-8-fluoro-4,4,6-trimethyl-2-oxo-5,6-dihydro-4H-pyrrolo[3,2,1-ij]quinolin-1(2H)-ylidene)-2-thioxothiazolidin-4-one]
12 | 78 | 2.87 ± 0.21 | 95 | 4.3 ± 0.06 | CC1(c2ccc(Cl)cc2)CC(C)(C)N2C(=O)/C(=C3\SC(=S)NC3=O)c3cc(I)cc1c32 (stereo not drawn) [12l, (Z)-5-(6-(4-Chlorophenyl)-8-iodo-4,4,6-trimethyl-2-oxo-5,6-dihydro-4H-pyrrolo[3,2,1-ij]quinolin-1(2H)-ylidene)-2-thioxothiazolidin-4-one]
13 | 18 | – | 0 | – | CCN1C(=O)/C(=C2/C(=O)N3c4c2cc(F)cc4C(C)(c2ccc(Cl)cc2)CC3(C)C)SC1=S (stereo not drawn) [12m, (Z)-5-(6-(4-Chlorophenyl)-8-fluoro-4,4,6-trimethyl-2-oxo-5,6-dihydro-4H-pyrrolo[3,2,1-ij]quinolin-1(2H)-ylidene)-3-ethyl-2-thioxothiazolidin-4-one]
14 | 94 | 2.6 ± 0.5 | 91 | 9.41 ± 0.51 | CC1(C)CC2(CCCCC2)N2C(=O)/C(=C3\SC(=S)NC3=O)c3cccc1c32 [12n, (Z)-5-(6′,6′-Dimethyl-2′-oxo-5′,6′-dihydrospiro[cyclohexane-1,4′-pyrrolo[3,2,1-ij]quinolin]-1′(2′H)-ylidene)-2-thioxothiazolidin-4-one]
15 | 48 | – | 15 | – | Cc1cc2c3c(c1)C(C)CC1(CCCCC1)N3C(=O)/C2=C1\SC(=S)NC1=O (stereo not drawn) [12o, (Z)-5-(6′,8′-Dimethyl-2′-oxo-5′,6′-dihydrospiro[cyclohexane-1,4′-pyrrolo[3,2,1-ij]quinolin]-1′(2′H)-ylidene)-2-thioxothiazolidin-4-one]
16 | 67 | 3.03 ± 0.18 | 77 | 12.2 ± 0.5 | CC1CC2(CCCC2)N2C(=O)/C(=C3\SC(=S)NC3=O)c3cc(F)cc1c32 (stereo not drawn) [12p, (Z)-5-(8′-Fluoro-6′-methyl-2′-oxo-5′,6′-dihydrospiro[cyclopentane-1,4′-pyrrolo[3,2,1-ij]quinolin]-1′(2′H)-ylidene)-2-thioxothiazolidin-4-one]
17 | 47 | – | 91 | 4.32 ± 0.06 | CC1CC2(CCCCCC2)N2C(=O)/C(=C3\SC(=S)NC3=O)c3cc(F)cc1c32 (stereo not drawn) [12q, (Z)-5-(8′-Fluoro-6′-methyl-2′-oxo-5′,6′-dihydrospiro[cycloheptane-1,4′-pyrrolo[3,2,1-ij]quinolin]-1′(2′H)-ylidene)-2-thioxothiazolidin-4-one]
18 | 36 | – | 3 | – | C#CCN1C(=O)/C(=C2/C(=O)N3c4c2cc(F)cc4C(C)(c2ccccc2)CC3(C)C)SC1=S (stereo not drawn) [14a, (Z)-5-(8-Fluoro-4,4,6-trimethyl-2-oxo-6-phenyl-5,6-dihydro-4H-pyrrolo[3,2,1-ij]quinolin-1(2H)-ylidene)-3-(prop-2-yn-1-yl)-2-thioxothiazolidin-4-one]
19 | 49 | – | 17 | – | C#CCN1C(=O)/C(=C2/C(=O)N3c4c2cc(F)cc4C(C)(c2ccc(Cl)cc2)CC3(C)C)SC1=S (stereo not drawn) [14b, (Z)-5-(6-(4-Chlorophenyl)-8-fluoro-4,4,6-trimethyl-2-oxo-5,6-dihydro-4H-pyrrolo[3,2,1-ij]quinolin-1(2H)-ylidene)-3-(prop-2-yn-1-yl)-2-thioxothiazolidin-4-one]
20 | 2 | – | 6 | – | CCOc1cc2c3c(c1)C(C)CC(C)(C)N3C(=O)/C2=C1\NC(=S)NC1=O (stereo not drawn) [16a, (Z)-8-Ethoxy-4,4,6-trimethyl-1-(5-oxo-2-thioxoimidazolidin-4-ylidene)-5,6-dihydro-4H-pyrrolo[3,2,1-ij]quinolin-2(1H)-one]
